The record followed here is US4892947A, “3(2H)Pyridazinone, process for its preparation and anti-allergic agent containing it” (Nissan Chemical Industries Ltd., priority 1985, dated 1990).

Counter-ions that a name gives are not always drawn.

In the first series the test system is ddY strain male mice. Kind of series: Acute toxicity test, intraperitoneal (Test method-(1)). The format is in vivo. As to conditions: i.p. 200 mg/kg, 7 days. The protocol: The lethal ratio was determined in ddY strain male mice (4 weeks old) at 7 days after the intraperitoneal injection of test compounds.
For `CCCOc1cc(CNc2cnn(C)c(=O)c2Cl)ccc1OC` [Compound No. 12], the “Lethal ratio (Death number/Experimental number)” value is 0/2.

The series is the same for the next values; noted with them: i.p. 400 mg/kg, 7 days.
As for `CCCOc1cc(CNc2cnn(C)c(=O)c2Cl)ccc1OC` [Compound No. 12], the “Lethal ratio (Death number/Experimental number)” value was 0/1.

The subject of the next series is LTD4. As to the kind of experiment: LTD4 antagonism in isolated guinea-pig trachea (method (i)). The format is cell-based. As to conditions: 10^-5 g/ml test compound, 5 min prior to LTD4 (2×10^-8 g/ml), hydrochloride. The protocol:
(i) LTC4 and LTD4 antagonisms in guinea-pig trachea
Antagonisms for LTC4 and LTD4 were determined in isolated guinea-pig trachea prepared as spiral strip. Tracheal preparations were suspended under 1 g tension in 10 ml organ baths and they were incubated for 1 hr prior to use. Contractile responses to LTC4 (2×10^-8 g/ml) and LTD4 (2×10^-8 g/ml) were obtained after the maximal response to histamine (10^-4 M). Test compounds dissolved in 100% dimethyl sulfoxide were added to the organ baths (final concentration of 10^-5 g/ml or 10^-6 g/ml) 5 min prior to LTC4 and LTD4 addition, and then contractile responses to LTC4 and LTD4 were compared with those of control which was obtained from a paired trachea in the absence of test compounds. LTC4 - and LTD4 -induced contractions were expressed as a percentage of the maximal response to histamine. The antagonism was determined as follows:
(§1) Antagonism (%)=(1.0-% contraction in test/% contraction in control)×100
In the case of `COc1ccc(CNc2cnn(CCN(C)C)c(=O)c2Cl)cc1OC` [Compound No. 9, 4-Chloro-5-(3,4-dimethoxybenzylamino)-2-(2-N,N-dimethylaminoethyl)-3(2H)pyridazinone hydrochloride], the “LTD4 antagonism (%)” value turned out to be 26%.

Still in this series, the particulars now being: Cavia porcellus, 5 min, 10^-5 g/ml test compound, 5 min prior to LTD4 (2×10^-8 g/ml).
Compound `CCCCCOc1cc(CNc2cnn(CCC(=O)O)c(=O)c2Cl)ccc1OC` [compound 18] displayed an inhibition at 10 µg/mL of 18%.
On the same count and under the same terms, then `CCCOc1cc(CNc2cnn(C)c(=O)c2Cl)ccc1OC` [Compound No. 12], with 73%; and `CCCOc1cccc(CNc2cn[nH]c(=O)c2Br)c1` [compound 29], with 61%; and `CCCCOC(=O)c1ccc(CNc2cnn(C)c(=O)c2Cl)cc1` [compound 24], with 43%.
On the same count and under the same terms, as for `COc1ccc(CNc2cnn(CCN(C)C)c(=O)c2Cl)cc1O` [compound 21], the figure is 20%.
Turning to `CCCOc1cccc(CNc2cn[nH]c(=O)c2Cl)c1` [compound 31], at 10 µg/mL the inhibition was 51%.
Take `Cn1ncc(NCc2ccc(C(=O)O)cc2)c(Cl)c1=O` [compound 27]: 10 µg/mL produced 20% inhibition.
Still for that read-out and setting: then `COc1ccc(CNc2cnn(CCN(C)C)c(=O)c2Cl)cc1OC` [Compound No. 8, 4-Chloro-5-(3,4-dimethoxybenzylamino)-2-(2-N,N-dimethylaminoethyl)-3(2H)pyridazinone], with 36%; and `CCN(CC)c1ccc(CNc2cnn(C)c(=O)c2Cl)cc1` [compound 26], with 46%; and `C=CCn1ncc(NCc2ccc(SC)cc2)c(Cl)c1=O` [compound 22], with 72%.
Same read-out and setting: as for `COc1cc(CNc2cnn(C)c(=O)c2Cl)cc(OC)c1OC` [compound 19], the figure is 22%; as for `CCCCCOc1cc(CNc2cnn(CC(=O)O)c(=O)c2Cl)ccc1OC` [compound 17], 20%.
Still for that read-out and setting: then `CN(C)c1ccc(CNc2cn[nH]c(=O)c2Cl)cc1` [compound 25], with 63%; and `Cn1ncc(NCc2cccc(OCc3ccccc3)c2)c(Cl)c1=O` [compound 7], with 53%; and `COc1ccc(CNc2cn[nH]c(=O)c2Cl)cc1` [compound 28], with 67%.
With `COc1ccc(CNc2cnn(CC(F)(F)F)c(=O)c2Cl)cc1OC` [compound 11], the inhibition at 10 µg/mL came to 47%.
For `CCCOc1cccc(CNc2cnn(C)c(=O)c2Cl)c1` [compound 5], the inhibition at 10 µg/mL amounted to 71%.
Regarding `COc1cc(CNc2cnn(CCCO)c(=O)c2Cl)cc(OC)c1OC` [compound 20], 10 µg/mL produced 19% inhibition.
`C=CCn1ncc(NCc2ccc(OC)c(OC)c2)c(Cl)c1=O` [compound 6]: the inhibition at 10 µg/mL came to 53%.
Same read-out and setting: as for `CCCCC/C=C\c1ccc(CNc2cnn(CC(=O)O)c(=O)c2Cl)cc1` [compound 23], the figure is 31%; as for `CCCCCOc1cc(CNc2cnn(CCO)c(=O)c2Cl)ccc1OC` [compound 14], 35%; as for `CCCCCOc1cc(CNc2cnn(CCC(=O)OC(C)(C)C)c(=O)c2Cl)ccc1OC` [Compound No. 16, 4-Chloro-5-(3-n-pentyloxy-4-methoxybenzylamino)-2-{2-(t-butyloxycarbonyl)ethyl}-3(2H)pyridazinone], 24%.
The compound `CCOc1cccc(CNc2cnn(C)c(=O)c2Cl)c1` [Compound No. 4] yielded an inhibition at 10 µg/mL of 49%.
In the case of `CCCCCOc1cc(CNc2cnn(CCCO)c(=O)c2Cl)ccc1OC` [compound 15], the inhibition at 10 µg/mL turned out to be 51%.
On the same count and under the same terms, then `C=CCn1ncc(NCc2ccc(Cl)cc2)c(Cl)c1=O` [Compound No. 2], with 93%.
`CC(C)c1ccc(CNc2cnn(C)c(=O)c2Cl)cc1` [Compound No. 1] showed an inhibition at 10 µg/mL of 49%.

The series is the same for the next values; noted with them: Cavia porcellus, 5 min, 10^-6 g/ml test compound, Test method (i) (asterisk in Table 4), 5 min prior to LTD4.
As to `CCOc1cc(CNc2cn[nH]c(=O)c2Cl)ccc1OC` [compound 35], at 1 µg/mL the inhibition was 42%.
Still for that read-out and setting: as for `CCCCCOc1cc(CNc2cn[nH]c(=O)c2Cl)ccc1OC` [Compound No. 37], the figure is 87%; as for `CCCCCOc1cc(CNc2cn[nH]c(=O)c2Br)ccc1OC` [Compound No. 39, 4-Bromo-5-(3-n-pentyloxy-4-methoxybenzylamino)-3(2H)-pyridazinone], 87%; as for `CCCCOc1cc(CNc2cn[nH]c(=O)c2Cl)ccc1OC` [compound 34], 49%.

The next series has as its system antigen-induced anaphylactic bronchoconstriction in passively sensitized guinea-pig. Kind of series: Anaphylactic bronchoconstriction in passively sensitized guinea-pig, i.v. test. The format is in vivo. As to conditions: i.v. 2 mg/kg, 1 min prior to EA challenge (10 mg/kg). The protocol:
(iii) Effect on anaphylactic bronchoconstriction in passively sensitized guinea-pig
Male guinea-pigs (350-450 g) were passively sensitized with intravenous (i.v.) injection of 0.125 ml rabbit anti-EA (egg albumin) serum (Cappel Laboratories) 1 to 2 days preceding the experiment. […] Sensitized guinea-pigs were anaesthetized with intraperitoneal injection of urethane (1.5 g/kg). The right jugular vein was cannulated for the administration of the all agents and trachea was cannulated to record total pulmonary resistance. Guinea-pigs were artificially ventilated by a small animal respirator (Shinano, Model SN-480-7) set at a stroke volume of 4.5 ml and a rate of 50 breaths per min. […] The increase in air overflow volume was expresssed as a percentage of the maximum bronchoconstriction obtained by clamping off the trachea. Following surgical preparation, the animals were pretreated with indomethacin (0.2 mg/kg, 10 min), pyrilamine (2 mg/kg, 6 min) and propanolol (0.1 mg/kg, 5 min) prior to the EA challenge (0.1 or 10 mg/kg). All test compounds were administered intraveneously or orally before the EA challenge. Inhibition (%) of bronchoconstriction was determined as follows: Inhibition (%)=(1.0%-maximum bronchoconstriction in test/% maximum bronchoconstriction in control)×100. […] The number of test animals was 4 in the i.v. test and 6 in the p.o. test.
(a) The i.v. test: A test compound (2 mg/kg) was suspended or dissolved in 3% Tween 80 and intraveneously administered 1 min prior to the EA challlenge (10 mg/kg).
With `CCCOc1cc(CNc2cnn(C)c(=O)c2Cl)ccc1OC` [Compound No. 12], the “Inhibition (%) of bronchoconstriction” value is 31%.
Still for that read-out and setting: then `CN(C)c1ccc(CNc2cn[nH]c(=O)c2Cl)cc1` [compound 25], with 27%.

The next series has as its system LTD4. As to the kind of experiment: LTD4 antagonism in isolated guinea-pig trachea with indomethacin (method (ii)). The format is cell-based. As to conditions: Cavia porcellus, 0.5 h, 10^-6 g/ml test compound, 30 min prior to LTD4. The protocol: (ii) LTD4 antagonism in guinea-pig trachea
Antagonism for LTD4 was determined in isolated guinea-pig trachea prepared as spiral strip. Tracheal preparations were suspended under 1 g tension in 10 ml organ baths containing […] of indomethacin and they were incubated for 1 hr prior to use. Contractile responses to LTD4 (2×10^-8 g/ml) were obtained after the maximal respone to hitamine (10^-4 M). Test compounds dissolved in 100% dimethyl sulfoxide were added to the organ baths (final concentration of 10^-6 g/ml) 30 min prior to LTD4 addition, and then contractile responses to LTD4 were compared with those of control which was obtained from a paired trachea in the absence of test compounds. LTD4 -induced contractions were expressed as a percentage of the maximal response to histamine. The antagonism was determined as follows:
as §1
`COc1ccc(CNc2cnn(-c3ccccc3)c(=O)c2Cl)cc1` [compound 44] came in with an inhibition at 1 µg/mL of 20%.
On the same count and under the same terms, then `CCCCCCOc1cc(CNc2cn[nH]c(=O)c2Br)ccc1OC` [Compound No. 41], with 87%; and `C=CCn1ncc(NCc2ccc(OC)c(OCC)c2)c(Cl)c1=O` [compound 48], with 28%.
Take `Cc1ccc(CNc2cn[nH]c(=O)c2Br)c(C)c1` [compound 53]: the inhibition at 1 µg/mL turned out to be 37%.
The compound `COc1ccc(CNc2cn[nH]c(=O)c2Cl)cc1OCc1ccccc1` [compound 54] had an inhibition at 1 µg/mL of 44%.
On the same count and under the same terms, then `C=CCn1ncc(NCc2ccc(OC)c(OCCC)c2)c(Cl)c1=O` [compound 47], with 31%.
On the same count and under the same terms, as for `Cc1ccc(CNc2cn[nH]c(=O)c2Cl)c(C)c1` [compound 52], the figure is 22%; as for `CCCCCCCOc1cc(CNc2cn[nH]c(=O)c2Cl)ccc1OC` [compound 42], 96%; as for `COc1ccc(CNc2cnn(Cc3ccccc3)c(=O)c2Cl)cc1` [compound 45], 23%.
Same read-out and setting: as for `CCOc1cccc(CNc2cnn(Cc3ccccc3)c(=O)c2Cl)c1` [compound 50], the figure is 30%; as for `CCCCCCCOc1cc(CNc2cn[nH]c(=O)c2Br)ccc1OC` [compound 43], 78%.
Take `CCOc1cc(CNc2cnn(C3CCCC3)c(=O)c2Cl)ccc1OC` [compound 46]: the inhibition at 1 µg/mL is 38%.
On the same count and under the same terms, then `CCCCCCOc1cc(CNc2cn[nH]c(=O)c2Cl)ccc1OC` [compound 40], with 99%; and `CCOc1cc(CNc2cnn(-c3ccccc3)c(=O)c2Cl)ccc1OC` [compound 49], with 42%.

A word on the inhibition: it is the relative decrease from the control value, in per cent. Higher therefore signals a response far below the control.
